Measured values from patent US20240101540A1, “TARGETED PROTEIN DEGRADATION OF PARP14 FOR USE IN THERAPY” (Ribon Therapeutics, Inc., priority 2022, published 2024).
Structures can show the parent of a compound that is named as a salt.

Biological target: T1, HiBiT tagged PARP14 (Homo sapiens, UniProt Q460N5)
T1 construct: engineered to contain a HiBiT tag on both alleles of the PARP14 gene; endogenous in cells; host or cells: Jurkat cells stably transfected with LgBiT (Promega), PARP14 locus edited by CRISPR/Cas9
Assay: HiBiT assay for the degradation of PARP14 (HiBiT tagged PARP14 in LgBiT expressing Jurkat cells, 2 or 24 hours)
Type: cell-based
Conditions: Assay B (Example B): HiBiT tagged PARP14 degradation in LgBiT expressing Jurkat cells, read-out: DC50
In short: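 Jurkat cells stably expressing LgBiT with CRISPR knock-in of C-terminal HiBiT on both PARP14 alleles, 5,000 cells/well, treated with compound dose-response at 37 °C for 2 or 24 h. Live Cell Substrate luminescence normalised to 0.1% DMSO wells; DC50 from 4-parameter fit with floating top, bottom, Hill.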

T1 sequence (Q460N5 whole entry): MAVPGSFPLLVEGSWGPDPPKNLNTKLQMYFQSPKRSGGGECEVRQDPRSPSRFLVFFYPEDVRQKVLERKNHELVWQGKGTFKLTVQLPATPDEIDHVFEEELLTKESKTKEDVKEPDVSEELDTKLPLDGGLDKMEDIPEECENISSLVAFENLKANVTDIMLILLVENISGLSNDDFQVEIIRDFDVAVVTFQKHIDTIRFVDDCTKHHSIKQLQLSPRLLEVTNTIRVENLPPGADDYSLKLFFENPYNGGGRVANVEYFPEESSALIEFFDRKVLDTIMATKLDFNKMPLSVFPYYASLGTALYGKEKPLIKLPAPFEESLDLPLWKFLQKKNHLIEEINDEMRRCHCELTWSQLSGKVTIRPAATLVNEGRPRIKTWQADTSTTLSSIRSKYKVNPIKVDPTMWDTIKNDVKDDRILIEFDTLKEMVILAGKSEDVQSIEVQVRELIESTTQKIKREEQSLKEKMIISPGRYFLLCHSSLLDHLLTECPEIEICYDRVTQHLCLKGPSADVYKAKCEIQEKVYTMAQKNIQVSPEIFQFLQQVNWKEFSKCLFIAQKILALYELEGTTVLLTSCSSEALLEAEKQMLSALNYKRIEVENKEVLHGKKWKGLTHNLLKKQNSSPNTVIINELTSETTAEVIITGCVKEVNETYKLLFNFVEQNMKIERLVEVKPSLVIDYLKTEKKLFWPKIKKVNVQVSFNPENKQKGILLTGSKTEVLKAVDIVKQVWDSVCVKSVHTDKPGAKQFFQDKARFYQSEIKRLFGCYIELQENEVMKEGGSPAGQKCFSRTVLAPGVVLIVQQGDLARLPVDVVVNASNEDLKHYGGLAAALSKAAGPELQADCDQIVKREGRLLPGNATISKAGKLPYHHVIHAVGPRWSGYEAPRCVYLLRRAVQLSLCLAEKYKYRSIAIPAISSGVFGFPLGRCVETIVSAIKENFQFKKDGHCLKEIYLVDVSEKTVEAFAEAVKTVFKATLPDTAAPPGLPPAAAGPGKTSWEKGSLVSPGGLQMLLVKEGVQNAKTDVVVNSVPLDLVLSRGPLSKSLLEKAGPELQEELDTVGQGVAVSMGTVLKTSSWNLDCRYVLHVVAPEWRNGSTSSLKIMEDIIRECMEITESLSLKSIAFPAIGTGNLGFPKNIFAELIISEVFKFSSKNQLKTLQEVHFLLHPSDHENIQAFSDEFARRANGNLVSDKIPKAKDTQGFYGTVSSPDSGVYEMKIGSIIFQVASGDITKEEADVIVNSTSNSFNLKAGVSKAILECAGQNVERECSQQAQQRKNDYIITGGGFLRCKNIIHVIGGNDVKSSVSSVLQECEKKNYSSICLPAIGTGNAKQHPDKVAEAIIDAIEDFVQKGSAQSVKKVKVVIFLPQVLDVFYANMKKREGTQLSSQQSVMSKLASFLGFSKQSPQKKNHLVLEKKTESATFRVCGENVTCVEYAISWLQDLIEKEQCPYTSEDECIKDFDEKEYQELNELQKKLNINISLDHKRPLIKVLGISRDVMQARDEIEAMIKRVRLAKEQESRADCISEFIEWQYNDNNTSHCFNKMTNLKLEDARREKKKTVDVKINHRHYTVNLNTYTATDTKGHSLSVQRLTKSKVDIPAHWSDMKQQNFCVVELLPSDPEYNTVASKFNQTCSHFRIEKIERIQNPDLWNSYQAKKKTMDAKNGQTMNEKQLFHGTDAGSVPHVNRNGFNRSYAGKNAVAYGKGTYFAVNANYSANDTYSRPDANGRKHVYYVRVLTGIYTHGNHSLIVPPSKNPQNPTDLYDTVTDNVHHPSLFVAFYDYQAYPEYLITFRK

DC50 [µM]	SMILES
< 0.03	Cn1nc(N2CCC(=O)NC2=O)c2cc(F)c(C3CCN(CCN4CCC(COc5cc(F)c6c(=O)[nH]c(CSC7CCOCC7)nc6c5)CC4)CC3)cc21 [Example 207, 1-(5-fluoro-6-(1-(2-(4-(((5-fluoro-4-oxo-2-(((tetrahydro-2H-pyran-4-yl)thio)methyl)-3,4-dihydroquinazolin-7-yl)oxy)methyl)piperidin-1-yl)ethyl)piperidin-4-yl)-1-methyl-1H-indazol-3-yl)dihydropyrimidine-2,4(1H,3H)-dione formate]
< 0.03	O=C1CCN(c2ccc(C3CCN(CCN4CCC(COc5cc(F)c6c(=O)[nH]c(CSC7CCOCC7)nc6c5)CC4)CC3)c(F)c2)C(=O)N1 [Example 208, 1-(3-fluoro-4-(1-(2-(4-(((5-fluoro-4-oxo-2-(((tetrahydro-2H-pyran-4-yl)thio)methyl)-3,4-dihydroquinazolin-7-yl)oxy)methyl)piperidin-1-yl)ethyl)piperidin-4-yl)phenyl)dihydropyrimidine-2,4(1H,3H)-dione]
< 0.03	O=C1CCN(c2cnc3cc(N4CCN(CCN5CCC(COc6cc(F)c7c(=O)[nH]c(CSC8CCOCC8)nc7c6)CC5)CC4)ccn23)C(=O)N1 [Example 209, 1-(7-(4-(2-(4-(((5-fluoro-4-oxo-2-(((tetrahydro-2H-pyran-4-yl)thio)methyl)-3,4-dihydroquinazolin-7-yl)oxy)methyl)piperidin-1-yl)ethyl)piperazin-1-yl)imidazo[1,2-a]pyridin-3-yl)dihydropyrimidine-2,4(1H,3H)-dione diformate]
< 0.03	O=C1CCN(c2cncc3c(N4CCN(CCN5CCC(COc6cc(F)c7c(=O)[nH]c(CSC8CCOCC8)nc7c6)CC5)CC4)cccc23)C(=O)N1 [Example 210, 1-(8-(4-(2-(4-(((5-fluoro-4-oxo-2-(((tetrahydro-2H-pyran-4-yl)thio)methyl)-3,4-dihydroquinazolin-7-yl)oxy)methyl)piperidin-1-yl)ethyl)piperazin-1-yl)isoquinolin-4-yl)dihydropyrimidine-2,4(1H,3H)-dione]
< 0.03	O=C1CCN(c2cnc3cc(C4CCN(CCN5CCC(COc6cc(F)c7c(=O)[nH]c(CSC8CCOCC8)nc7c6)CC5)CC4)ccn23)C(=O)N1 [Example 211, 1-(7-(1-(2-(4-(((5-fluoro-4-oxo-2-(((tetrahydro-2H-pyran-4-yl)thio)methyl)-3,4-dihydroquinazolin-7-yl)oxy)methyl)piperidin-1-yl)ethyl)piperidin-4-yl)imidazo[1,2-a]pyridin-3-yl)dihydropyrimidine-2,4(1H,3H)-dione]
< 0.03	Cn1nc(N2CCC(=O)NC2=O)c2cc(F)c(N3CCN(CCN4CCC(COc5cc(F)c6c(=O)[nH]c(CSC7CCOCC7)nc6c5)CC4)CC3)cc21 [Example 212, 1-(5-fluoro-6-(4-(2-(4-(((5-fluoro-4-oxo-2-(((tetrahydro-2H-pyran-4-yl)thio)methyl)-3,4-dihydroquinazolin-7-yl)oxy)methyl)piperidin-1-yl)ethyl)piperazin-1-yl)-1-methyl-1H-indazol-3-yl)dihydropyrimidine-2,4(1H,3H)-dione]
< 0.03	O=C1CCC(Nc2ccc(N3CCN(CC4CCN(CCOc5cc(F)c6c(=O)[nH]c(CSC7CCOCC7)nc6c5)CC4)CC3)c(F)c2)C(=O)N1 (stereo not drawn) [Example 213, 3-((3-fluoro-4-(4-((1-(2-((5-fluoro-4-oxo-2-(((tetrahydro-2H-pyran-4-yl)thio)methyl)-3,4-dihydroquinazolin-7-yl)oxy)ethyl)piperidin-4-yl)methyl)piperazin-1-yl)phenyl)amino)piperidine-2,6-dione]
< 0.03	O=C1CCC(Nc2ccc(N3CCC(N4CCC(N5CCC(COc6cc(F)c7c(=O)[nH]c(CSC8CCOCC8)nc7c6)CC5=O)CC4)CC3)c(F)c2)C(=O)N1 (stereo not drawn) [Example 214, 3-((3-fluoro-4-(4-(((5-fluoro-4-oxo-2-(((tetrahydro-2H-pyran-4-yl)thio)methyl)-3,4-dihydroquinazolin-7-yl)oxy)methyl)-2-oxo-[1,4′:1′,4″-terpiperidin]-1″-yl)phenyl)amino)piperidine-2,6-dione formate]
< 0.03	O=C1CCC(Nc2ccc(N3CCC4(CCN(CCOc5cc(F)c6c(=O)[nH]c(CSC7CCOCC7)nc6c5)CC4)CC3)c(F)c2)C(=O)N1 (stereo not drawn) [Example 215, 3-((3-fluoro-4-(9-(2-((5-fluoro-4-oxo-2-(((tetrahydro-2H-pyran-4-yl)thio)methyl)-3,4-dihydroquinazolin-7-yl)oxy)ethyl)-3,9-diazaspiro[5.5]undecan-3-yl)phenyl)amino)piperidine-2,6-dione]
< 0.03	O=C1CCC(Nc2ccc(N3CCN(CCN4CCC(COc5cc(F)c6c(=O)[nH]c(CCC7CCOCC7)nc6c5)CC4)CC3)cc2F)C(=O)N1 (stereo not drawn) [Example 216, 3-((2-fluoro-4-(4-(2-(4-(((5-fluoro-4-oxo-2-(2-(tetrahydro-2H-pyran-4-yl)ethyl)-3,4-dihydroquinazolin-7-yl)oxy)methyl)piperidin-1-yl)ethyl)piperazin-1-yl)phenyl)amino)piperidine-2,6-dione]
< 0.03	O=C1CCC(Nc2ccc(N3CCC(CN4CC(N5CCC(COc6cc(F)c7c(=O)[nH]c(CSC8CCOCC8)nc7c6)CC5)C4)CC3)c(F)c2)C(=O)N1 (stereo not drawn) [Example 217, 3-((3-fluoro-4-(4-((3-(4-(((5-fluoro-4-oxo-2-(((tetrahydro-2H-pyran-4-yl)thio)methyl)-3,4-dihydroquinazolin-7-yl)oxy)methyl)piperidin-1-yl)azetidin-1-yl)methyl)piperidin-1-yl)phenyl)amino)piperidine-2,6-dione formate]
< 0.03	O=C1CCC(Nc2cc(F)c(N3CCC(N4CC(N5CCC(COc6cc(F)c7c(=O)[nH]c(CSC8CCOCC8)nc7c6)CC5)C4)CC3)cc2F)C(=O)N1 (stereo not drawn) [Example 218, 3-((2,5-difluoro-4-(4-(3-(4-(((5-fluoro-4-oxo-2-(((tetrahydro-2H-pyran-4-yl)thio)methyl)-3,4-dihydroquinazolin-7-yl)oxy)methyl)piperidin-1-yl)azetidin-1-yl)piperidin-1-yl)phenyl)amino)piperidine-2,6-dione]
< 0.03	O=C1CCC(Nc2ccc(N3CCC(N4CCC(COc5cc(F)c6c(=O)[nH]c(CC7CC7)nc6c5)CC4)CC3)c(F)c2)C(=O)N1 (stereo not drawn) [Example 219, 3-((4-(4-(((2-(cyclopropylmethyl)-5-fluoro-4-oxo-3,4-dihydroquinazolin-7-yl)oxy)methyl)-[1,4′-bipiperidin]-1′-yl)-3-fluorophenyl)amino)piperidine-2,6-dione formate]
< 0.03	O=C1CCC(Nc2ccc(N3CCC(CN4CCC(C#Cc5cc(F)c6c(=O)[nH]c(CSC7CCOCC7)nc6c5)CC4)CC3)c(F)c2)C(=O)N1 (stereo not drawn) [Example 220, 3-((3-fluoro-4-(4-((4-((5-fluoro-4-oxo-2-(((tetrahydro-2H-pyran-4-yl)thio)methyl)-3,4-dihydroquinazolin-7-yl)ethynyl)piperidin-1-yl)methyl)piperidin-1-yl)phenyl)amino)piperidine-2,6-dione formate]
< 0.03	O=C1CCC(Nc2ccc(N3CCC(N4CC(N5CCC(COc6cc(F)c7c(=O)[nH]c(CSC8CCOCC8)nc7c6)CC5)C4)CC3)cc2F)C(=O)N1 (stereo not drawn) [Example 221, 3-((2-fluoro-4-(4-(3-(4-(((5-fluoro-4-oxo-2-(((tetrahydro-2H-pyran-4-yl)thio)methyl)-3,4-dihydroquinazolin-7-yl)oxy)methyl)piperidin-1-yl)azetidin-1-yl)piperidin-1-yl)phenyl)amino)piperidine-2,6-dione formate]
